Experimental data published in patent US9856242B2, “5-fluoro-N-(pyridin-2-yl)pyridin-2-amine derivatives containing a sulfone group” (Bayer Pharma Aktiengesellschaft, priority 2014, dated 2018).

What was measured:
Caco-2 cells = assay: Proliferation assay (Method 3), Caco-2; assay type: cell-based; conditions: Caco-2, 96 h; human colorectal carcinoma, 4 days, crystal violet; read-out: Inhibition of Caco-2 cell proliferation IC50
Protocol: (§1) Cultivated tumour cells (HeLa, human cervical tumour cells, ATCC CCL-2; NCI-H460, human non-small cell lung carcinoma cells, ATCC HTB-177; A2780, human ovarian carcinoma cells, ECACC #93112519; DU 145, hormone-independent human prostate carcinoma cells, ATCC HTB-81; HeLa-MaTu-ADR, multidrug-resistant human cervical carcinoma cells, EPO-GmbH Berlin; Caco-2, human colorectal carcinoma cells, ATCC HTB-37; B16F10, mouse melanoma cells, ATCC CRL-6475) were plated at a density of 5,000 cells/well (DU145, HeLa-MaTu-ADR), 3,000 cells/well (NCI-H460, HeLa), 2,500 cells/well (A2780), 1,500 cells/well (Caco-2), or 1,000 cells/well (B16F10) in a 96-well multititer plate in 200 μL of their respective growth medium supplemented 10% fetal calf serum. After 24 hours, the cells of one plate (zero-point plate) were stained with crystal violet (see below), while the medium of the other plates was replaced by fresh culture medium (200 μl), to which the test substances were added in various concentrations (0 μM, as well as in the range of 0.001-10 μM; the final concentration of the solvent dimethyl sulfoxide was 0.5%). The cells were incubated for 4 days in the presence of test substances. Cell proliferation was determined by staining the cells with crystal violet: the cells were fixed by adding 20 μl/measuring point of an 11% glutaric aldehyde solution for 15 minutes at room temperature. After three washing cycles of the fixed cells with water, the plates were dried at room temperature. The cells were stained by adding 100 μl/measuring point of a 0.1% crystal violet solution (pH 3.0). After three washing cycles of the stained cells with water, the plates were dried at room temperature. The dye was dissolved by adding 100 μl/measuring point of a 10% acetic acid solution. The extinction was determined by photometry at a wavelength of 595 nm. The change of cell number, in percent, was calculated by normalization of the measured values to the extinction values of the zero-point plate (=0%) and the extinction of the untreated (0 μm) cells (=100%). The IC50 values (inhibitory concentration at 50% of maximal effect) were determined by means of a 4 parameter fit.

NCI-H460 cells = assay: Proliferation assay (Method 3), NCI-H460; assay type: cell-based; conditions: NCI-H460, 96 h; human non-small cell lung carcinoma, 4 days, crystal violet; read-out: Inhibition of NCI-H460 cell proliferation IC50
Protocol: as §1

B16F10 cells = assay: Proliferation assay (Method 3), B16F10; assay type: cell-based; conditions: B16-F10, 96 h; mouse melanoma, 4 days, crystal violet; read-out: Inhibition of B16F10 cell proliferation IC50
Protocol: as §1

HeLa cells = assay: Proliferation assay (Method 3), HeLa; assay type: cell-based; conditions: 96 h, human cervical tumour, 4 days, crystal violet, read-out: Inhibition of HeLa cell proliferation IC50
Protocol: as §1

CDK9/CycT1 = molecular target: T1, CDK9/CycT1 (Homo sapiens, UniProt P50750); assay: CDK9/CycT1 high ATP kinase assay (Method 1b, TR-FRET, 2 mM ATP); assay type: biochemical; conditions: for IC50: Method 1b, 2 mM ATP; for Selectivity high ATP CDK9/high ATP CDK2: according to Methods 1b and 2b (ratio of high ATP CDK2 IC50 to high ATP CDK9 IC50)
T1 construct: Recombinant full-length His-tagged human CDK9 and CycT1; His; purchased Invitrogen PV4131; host or cells: insect cells
T1 sequence (P50750 whole entry): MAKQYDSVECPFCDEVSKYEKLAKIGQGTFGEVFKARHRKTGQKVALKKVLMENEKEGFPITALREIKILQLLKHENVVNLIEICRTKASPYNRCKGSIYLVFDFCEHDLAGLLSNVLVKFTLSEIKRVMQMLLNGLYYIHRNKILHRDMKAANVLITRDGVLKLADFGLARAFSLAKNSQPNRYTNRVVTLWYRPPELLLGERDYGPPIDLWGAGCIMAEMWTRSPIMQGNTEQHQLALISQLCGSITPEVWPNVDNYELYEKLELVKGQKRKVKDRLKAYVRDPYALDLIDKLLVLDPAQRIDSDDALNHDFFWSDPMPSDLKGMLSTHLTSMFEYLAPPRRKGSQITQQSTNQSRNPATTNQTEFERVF
T1 sequence (O60563 whole entry partner): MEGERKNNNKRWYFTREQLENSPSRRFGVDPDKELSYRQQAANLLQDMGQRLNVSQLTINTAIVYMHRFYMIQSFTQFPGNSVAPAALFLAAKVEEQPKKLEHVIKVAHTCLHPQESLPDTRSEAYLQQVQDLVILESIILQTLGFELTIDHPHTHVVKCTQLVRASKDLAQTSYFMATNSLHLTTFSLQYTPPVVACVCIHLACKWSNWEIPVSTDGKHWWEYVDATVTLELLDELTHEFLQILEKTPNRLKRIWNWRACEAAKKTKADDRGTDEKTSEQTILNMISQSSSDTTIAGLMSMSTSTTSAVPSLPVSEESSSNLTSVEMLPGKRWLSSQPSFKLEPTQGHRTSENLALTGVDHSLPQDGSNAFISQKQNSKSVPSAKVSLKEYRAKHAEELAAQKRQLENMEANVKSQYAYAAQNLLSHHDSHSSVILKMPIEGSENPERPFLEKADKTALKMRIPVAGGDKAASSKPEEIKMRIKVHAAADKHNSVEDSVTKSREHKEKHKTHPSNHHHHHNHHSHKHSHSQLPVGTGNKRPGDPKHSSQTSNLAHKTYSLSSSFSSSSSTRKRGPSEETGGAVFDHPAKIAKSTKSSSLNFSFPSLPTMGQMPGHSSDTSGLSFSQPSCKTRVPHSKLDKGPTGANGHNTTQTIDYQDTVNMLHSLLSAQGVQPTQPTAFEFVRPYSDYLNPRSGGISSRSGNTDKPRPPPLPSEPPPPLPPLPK
Protocol: 1b. CDK9/CycT1 High ATP Kinase Assay
CDK9/CycT1-inhibitory activity of compounds of the present invention at a high ATP concentration after preincubation of enzyme and test compounds was quantified employing the CDK9/CycT1 TR-FRET assay as described in the following paragraphs.
Recombinant full-length His-tagged human CDK9 and CycT1, expressed in insect cells and purified by Ni-NTA affinity chromatography, were purchase from Invitrogen (Cat. No PV4131). As substrate for the kinase reaction biotinylated peptide biotin-Ttds-YISPLKSPYKISEG (C-terminus in amid form) was used which can be purchased e.g. form the company JERINI peptide technologies (Berlin, Germany). For the assay 50 n1 of a 100 fold concentrated solution of the test compound in DMSO was pipetted into a black low volume 384 well microtiter plate (Greiner Bio-One, Frickenhausen, Germany), 2 μl of a solution of CDK9/CycT1 in aqueous assay buffer [50 mM Tris/HCl pH 8.0, 10 mM MgCl2, 1.0 mM dithiothreitol, 0.1 mM sodium ortho-vanadate, 0.01% (v/v) Nonidet-P40 (Sigma)] were added and the mixture was incubated for 15 min at 22° C. to allow pre-binding of the test compounds to the enzyme before the start of the kinase reaction. Then the kinase reaction was started by the addition of 3 μl of a solution of adenosine-tri-phosphate (ATP, 3.3 mM=>final conc. in the 5 μl assay volume is 2 mM) and substrate (1.67 μM=>final conc. in the 5 μl assay volume is 1 μM) in assay buffer and the resulting mixture was incubated for a reaction time of 25 min at 22° C. The concentration of CDK9/CycT1 was adjusted depending of the activity of the enzyme lot and was chosen appropriate to have the assay in the linear range, typical concentrations were in the range of 0.5 μg/mL. The reaction was stopped by the addition of 5 μl of a solution of TR-FRET detection reagents (0.2 μM streptavidine-XL665 [Cisbio Bioassays, Codolet, France] and 1 nM anti-RB(pSer807/pSer811)-antibody from BD Pharmingen [#558389] and 1.2 nM LANCE EU-W1024 labeled anti-mouse IgG antibody [Perkin-Elmer, product no. AD0077]) in an aqueous EDTA-solution (100 mM EDTA, 0.2% (w/v) bovine serum albumin in 100 mM HEPES/NaOH pH 7.0).
The resulting mixture was incubated 1 h at 22° C. to allow the formation of complex between the phosphorylated biotinylated peptide and the detection reagents. Subsequently the amount of phosphorylated substrate was evaluated by measurement of the resonance energy transfer from the Eu-chelate to the streptavidine-XL. Therefore, the fluorescence emissions at 620 nm and 665 nm after excitation at 350 nm was measured in a HTRF reader, e.g. a Rubystar (BMG Labtechnologies, Offenburg, Germany) or a Viewlux (Perkin-Elmer). The ratio of the emissions at 665 nm and at […] was taken as the measure for the amount of phosphorylated substrate. The data were normalised (enzyme reaction without inhibitor=0% inhibition, all other assay components but no enzyme=100% inhibition).

SMILES | IC50 (Caco-2 cells) [nM] | IC50 (NCI-H460 cells) [nM] | IC50 (B16F10 cells) [nM] | IC50 (HeLa cells) [nM] | IC50 (CDK9/CycT1) [nM] | Selectivity high ATP CDK9/high ATP CDK2 (CDK9/CycT1)
CS(=O)(=O)Cc1cc(F)nc(Nc2cc(-c3ccc(F)c4ccoc34)c(F)cn2)c1 [Example 2, 5-Fluoro-4-(4-fluoro-1-benzofuran-7-yl)-N-{6-fluoro-4-[(methylsulfonyl)methyl]pyridin-2-yl}pyridin-2-amine] | 37 | 48 | 59 | 40 | 1 | 517
Cc1cc(CS(C)(=O)=O)cc(Nc2cc(-c3ccc(F)c4ccoc34)c(F)cn2)n1 [Example 3, 5-Fluoro-4-(4-fluoro-1-benzofuran-7-yl)-N-{6-methyl-4-[(methylsulfonyl)methyl]pyridin-2-yl}pyridin-2-amine] | 12 | 19 | 32 | 12 | 0.9 | –
CS(=O)(=O)Cc1ccnc(Nc2cc(-c3ccc(F)c4ccoc34)c(F)cn2)c1 [Example 1, 5-Fluoro-4-(4-fluoro-1-benzofuran-7-yl)-N-{4-[(methylsulfonyl)methyl]pyridin-2-yl}pyridin-2-amine] | 40 | 37 | 70 | 6 | 2 | 268

Second part, the compound after the results:

IC50 (Caco-2 cells) [nM] | IC50 (NCI-H460 cells) [nM] | IC50 (B16F10 cells) [nM] | IC50 (HeLa cells) [nM] | IC50 (CDK9/CycT1) [nM] | Selectivity high ATP CDK9/high ATP CDK2 (CDK9/CycT1) | SMILES
14 | 33 | 31 | 13 | 4 | – | CS(=O)(=O)Cc1cc(Nc2cc(-c3ccc(F)c4ccoc34)c(F)cn2)nc(C(F)(F)F)c1 [Example 4, 5-Fluoro-4-(4-fluoro-1-benzofuran-7-yl)-N-{4-[(methylsulfonyl)methyl]-6-(trifluoromethyl)pyridin-2-yl}pyridin-2-amine]
61 | 91 | 120 | 68 | 2 | – | CS(=O)(=O)Cc1ccnc(Nc2cc(-c3cccc4ccoc34)c(F)cn2)c1 [Example 5, 4-(1-Benzofuran-7-yl)-5-fluoro-N-{4-[(methylsulfonyl)methyl]pyridin-2-yl}pyridin-2-amine]
